Experimental data from PubChem BioAssay AID220 (DTP/NCI, 2004).
“And” between values parts separate entries of the source, which are not always exact repeats. Equal entries are not always repeated. Results filed as inconclusive are left out.

System: CD8F1 mice, subcutaneous mammary adenocarcinoma, T/C%
Assay: NCI In Vivo Anticancer Drug Screen. Data for tumor model Mammary Adenocarcinoma CD8F1 (subcutaneous) in CD8F1
Details: higher = larger tumour
Procedure, shortened: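 Tumor-bearing mice, transplantable model; readout survival or tumor size; value = treated (T) / vehicle control (C).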

[1] = endpoint: median tumor weight (est.), dose: 25.0 mg/kg/injection, schedule: Q07DX005 (ip), vehicle: saline with Tween-80
[2] = endpoint: median tumor weight (est.), dose: 50.0 mg/kg/injection, schedule: Q07DX005 (ip), vehicle: saline with Tween-80
[3] = endpoint: median tumor weight (est.), dose: 100.0 mg/kg/injection, schedule: Q07DX005 (ip), vehicle: saline with Tween-80
[4] = endpoint: median tumor weight (est.), dose: 200.0 mg/kg/injection, schedule: Q07DX005 (ip), vehicle: saline with Tween-80
[5] = endpoint: median tumor weight (est.), dose: 12.5 mg/kg/injection, schedule: Q07DX005 (ip), vehicle: suspension in saline
[6] = endpoint: median tumor weight (est.), dose: 25.0 mg/kg/injection, schedule: Q07DX005 (ip), vehicle: suspension in saline

In the case of CCCCCC[C@@H](O)C/C=C\CCCCCCCC(=O)OCCO, the T/C (endpoint: median tumor weight change, dose: 125.0 mg/kg/injection, schedule: Q01DX001 (ip), vehicle: saline) is reported as 96 % of control, the T/C (endpoint: median tumor weight change, dose: 250.0 mg/kg/injection, schedule: Q01DX001 (ip), vehicle: saline) is reported as 91 % of control and the T/C (endpoint: median tumor weight change, dose: 500.0 mg/kg/injection, schedule: Q01DX001 (ip), vehicle: saline) is reported as 98 % of control. The T/C (endpoint: median tumor weight change, dose: 1000.0 mg/kg/injection, schedule: Q01DX001 (ip), vehicle: saline) was 103 % of control and the T/C (endpoint: median tumor weight change, dose: 2000.0 mg/kg/injection, schedule: Q01DX001 (ip), vehicle: saline) was 95 % of control.
In the case of CC[C@@]1(O)C[C@H](OC2CC(N(C)C)C(OC3CC(O)C(O[C@@H]4O[C@@H](C)C(=O)C=C4N)C(C)O3)C(C)O2)c2c(cc3c(c2O)C(=O)c2c(O)ccc(O)c2C3=O)[C@H]1C(=O)OC (some centres not stated), the T/C (endpoint: median tumor weight (est.), dose: 0.09 mg/kg/injection, schedule: Q07DX005 (ip), vehicle: suspension in saline) is reported as 180 % of control, the T/C (endpoint: median tumor weight (est.), dose: 0.18 mg/kg/injection, schedule: Q07DX005 (ip), vehicle: suspension in saline) is reported as 168 % of control and the T/C (endpoint: median tumor weight (est.), dose: 0.37 mg/kg/injection, schedule: Q07DX005 (ip), vehicle: suspension in saline) is reported as 240 % of control. For the same compound, the T/C (endpoint: median tumor weight (est.), dose: 0.38 mg/kg/injection, schedule: Q07DX005 (ip), vehicle: suspension in saline) was 37 % of control, the T/C (endpoint: median tumor weight (est.), dose: 3.0 mg/kg/injection, schedule: Q07DX005 (ip), vehicle: suspension in saline) was 50 % of control and 69 % of control and the T/C (endpoint: median tumor weight (est.), dose: 1.0 micrograms/kg/injection, schedule: Q07DX005 (ip), vehicle: Klucel (hydroxypropylcellulose) (HPC)) was 106 % of control. The T/C (endpoint: median tumor weight (est.), dose: 4.0 micrograms/kg/injection, schedule: Q07DX005 (ip), vehicle: Klucel (hydroxypropylcellulose) (HPC)) was 123 % of control.
In the case of C[C@H](CCC[C@H](C)OS(=O)(=O)c1ccccc1)OS(=O)(=O)c1ccccc1, the T/C [1] is reported as 57 % of control, the T/C [2] is reported as 41 % of control and the T/C [3] is reported as 57 % of control. For the same compound, the T/C [4] was 39 % of control.
With Nc1nc2n[nH]nc2c(=O)[nH]1 the T/C (endpoint: median tumor weight change, dose: 250.0 mg/kg/injection, schedule: Q01DX001 (ip), vehicle: suspension in saline) was 73 % of control and the T/C (endpoint: median tumor weight change, dose: 500.0 mg/kg/injection, schedule: Q01DX001 (ip), vehicle: suspension in saline) was 45 % of control.
For N=C(N)Sc1ccccn1, the T/C [5] was 156 % of control, the T/C [6] was 113 % of control and the T/C (endpoint: median tumor weight (est.), dose: 50.0 mg/kg/injection, schedule: Q07DX005 (ip), vehicle: suspension in saline) was 103 % of control. For the same compound, the T/C (endpoint: median tumor weight (est.), dose: 400.0 mg/kg/injection, schedule: Q07DX005 (ip), vehicle: suspension in saline) was 121 % of control.
For COc1ccc(C(=O)/C(Br)=C/C(=O)O)cc1, the T/C (endpoint: mean tumor weight, dose: 8.0 mg/kg/injection, schedule: Q07DX004 (ip), vehicle: saline) was 69 % of control, the T/C (endpoint: mean tumor weight, dose: 12.5 mg/kg/injection, schedule: Q01DX009 (ip), vehicle: saline) was 206 % of control and 122 % of control and the T/C (endpoint: mean tumor weight, dose: 16.0 mg/kg/injection, schedule: Q07DX004 (ip), vehicle: saline) was 171 % of control. The T/C (endpoint: mean tumor weight, dose: 25.0 mg/kg/injection, schedule: Q01DX009 (ip), vehicle: saline) was 241 % of control and 113 % of control, the T/C (endpoint: mean tumor weight, dose: 25.0 mg/kg/injection, schedule: Q07DX006 (ip), vehicle: saline) was 190 % of control and the T/C (endpoint: mean tumor weight, dose: 32.0 mg/kg/injection, schedule: Q07DX004 (ip), vehicle: saline) was 163 % of control. The T/C (endpoint: mean tumor weight, dose: 50.0 mg/kg/injection, schedule: Q01DX009 (ip), vehicle: saline) was 156 % of control and 209 % of control, the T/C (endpoint: mean tumor weight, dose: 50.0 mg/kg/injection, schedule: Q07DX006 (ip), vehicle: saline) was 86 % of control and the T/C (endpoint: mean tumor weight, dose: 64.0 mg/kg/injection, schedule: Q07DX004 (ip), vehicle: saline) was 89 % of control. For the same compound, the T/C (endpoint: median tumor weight (est.), dose: 4.0 mg/kg/injection, schedule: Q01DX005 (ip), vehicle: saline) was 159 % of control, the T/C (endpoint: median tumor weight (est.), dose: 8.0 mg/kg/injection, schedule: Q04DX005 (ip), vehicle: saline) was 114 % of control and the T/C (endpoint: median tumor weight (est.), dose: 8.0 mg/kg/injection, schedule: Q07DX005 (ip), vehicle: saline) was 120 % of control. For the same compound, the T/C (endpoint: median tumor weight (est.), dose: 16.0 mg/kg/injection, schedule: Q01DX005 (ip), vehicle: saline) was 100 % of control, the T/C (endpoint: median tumor weight (est.), dose: 16.0 mg/kg/injection, schedule: Q07DX005 (ip), vehicle: saline) was 120 % of control and the T/C (endpoint: median tumor weight (est.), dose: 32.0 mg/kg/injection, schedule: Q01DX005 (ip), vehicle: saline) was 116 % of control. For the same compound, the T/C (endpoint: median tumor weight (est.), dose: 32.0 mg/kg/injection, schedule: Q07DX005 (ip), vehicle: saline) was 50 % of control, the T/C (endpoint: median tumor weight (est.), dose: 64.0 mg/kg/injection, schedule: Q01DX005 (ip), vehicle: saline) was 56 % of control and the T/C (endpoint: median tumor weight (est.), dose: 64.0 mg/kg/injection, schedule: Q04DX005 (ip), vehicle: saline) was 219 % of control. For the same compound, the T/C (endpoint: median tumor weight (est.), dose: 64.0 mg/kg/injection, schedule: Q07DX005 (ip), vehicle: saline) was 105 % of control.
For O=CC(O)C(O)C(O)C(O)C(=O)O.[NH-]C1CCCCC1[NH-].[Pt+2] (configuration not stated), the T/C (endpoint: median tumor weight (est.), dose: 6.25 mg/kg/injection, schedule: Q07DX005 (ip), vehicle: suspension in saline) was 48 % of control, the T/C [5] was 7 % of control and 32 % of control and the T/C [6] was 6 % of control.
CCOC(=O)Nc1cc2c(c(N)n1)N=C(CN(C)c1ccccc1)CN2 was tested, and the T/C (endpoint: median tumor weight (est.), dose: 3.12 mg/kg/injection, schedule: Q07DX005 (ip), vehicle: Klucel (hydroxypropylcellulose) (HPC)) was 268 % of control, the T/C (endpoint: median tumor weight (est.), dose: 6.25 mg/kg/injection, schedule: Q07DX005 (ip), vehicle: Klucel (hydroxypropylcellulose) (HPC)) was 70 % of control and the T/C (endpoint: median tumor weight (est.), dose: 25.0 mg/kg/injection, schedule: Q07DX005 (ip), vehicle: Klucel (hydroxypropylcellulose) (HPC)) was 69 % of control and 79 % of control.
With CC1CC(C)CC(C)C(O)/C(C#N)=C/C=C/CC(C2CCCC2C(=O)O)OC(=O)CC(O)C(C)C1 (configuration not stated) the T/C (endpoint: median tumor weight (est.), dose: 0.5 mg/kg/injection, schedule: Q07DX005 (ip), vehicle: Klucel (hydroxypropylcellulose) (HPC)) was 71 % of control, the T/C (endpoint: median tumor weight (est.), dose: 1.0 mg/kg/injection, schedule: Q07DX005 (ip), vehicle: Klucel (hydroxypropylcellulose) (HPC)) was 59 % of control and the T/C (endpoint: median tumor weight (est.), dose: 2.0 mg/kg/injection, schedule: Q07DX005 (ip), vehicle: Klucel (hydroxypropylcellulose) (HPC)) was 71 % of control. For the same compound, the T/C (endpoint: median tumor weight (est.), dose: 3.0 mg/kg/injection, schedule: Q07DX005 (ip), vehicle: Klucel (hydroxypropylcellulose) (HPC)) was 105 % of control, the T/C (endpoint: median tumor weight (est.), dose: 4.0 mg/kg/injection, schedule: Q07DX005 (ip), vehicle: Klucel (hydroxypropylcellulose) (HPC)) was 114 % of control and the T/C (endpoint: median tumor weight (est.), dose: 6.0 mg/kg/injection, schedule: Q07DX005 (ip), vehicle: Klucel (hydroxypropylcellulose) (HPC)) was 124 % of control. For the same compound, the T/C (endpoint: median tumor weight (est.), dose: 8.0 mg/kg/injection, schedule: Q07DX005 (ip), vehicle: Klucel (hydroxypropylcellulose) (HPC)) was 36 % of control, the T/C (endpoint: median tumor weight (est.), dose: 12.0 mg/kg/injection, schedule: Q07DX005 (ip), vehicle: Klucel (hydroxypropylcellulose) (HPC)) was 102 % of control and the T/C (endpoint: median tumor weight (est.), dose: 16.0 mg/kg/injection, schedule: Q07DX005 (ip), vehicle: Klucel (hydroxypropylcellulose) (HPC)) was 14 % of control.
In the case of O=C(NC1CCCCC1)OCc1c(COC(=O)NC2CCCCC2)c(-c2ccc(Cl)c(Cl)c2)n2c1CCC2, the T/C [1] is reported as 94 % of control, the T/C [2] is reported as 72 % of control and the T/C [3] is reported as 20 % of control. The T/C [4] was 28 % of control.
O=[N+]([O-])c1ccc(N2CCOCC2)c2c1no[n+]2[O-] was tested, and the T/C (endpoint: median tumor weight change, dose: 62.5 mg/kg/injection, schedule: Q01DX001 (ip), vehicle: saline with Tween-80) was 100 % of control, the T/C (endpoint: median tumor weight change, dose: 125.0 mg/kg/injection, schedule: Q01DX001 (ip), vehicle: saline with Tween-80) was 114 % of control and the T/C (endpoint: median tumor weight change, dose: 250.0 mg/kg/injection, schedule: Q01DX001 (ip), vehicle: saline with Tween-80) was 43 % of control. The T/C (endpoint: median tumor weight change, dose: 500.0 mg/kg/injection, schedule: Q01DX001 (ip), vehicle: saline with Tween-80) was 56 % of control.
O=c1cnn(C2OC(CO)C(O)C2O)c(=O)[nH]1 (configuration not stated) was tested, and the T/C (endpoint: mean tumor weight, dose: 125.0 mg/kg/injection, schedule: Q07DX004 (ip), vehicle: saline) was 67 % of control, the T/C (endpoint: mean tumor weight, dose: 250.0 mg/kg/injection, schedule: Q07DX004 (ip), vehicle: saline) was 49 % of control and the T/C [3] was 63 % of control. For the same compound, the T/C (endpoint: median tumor weight (est.), dose: 100.0 mg/kg/injection, schedule: Q07DX005 (ip), vehicle: saline) was 17 % of control, the T/C [4] was 95 % of control and the T/C (endpoint: median tumor weight (est.), dose: 200.0 mg/kg/injection, schedule: Q07DX005 (ip), vehicle: saline) was 63 % of control. The T/C (endpoint: median tumor weight (est.), dose: 400.0 mg/kg/injection, schedule: Q07DX005 (ip), vehicle: saline with Tween-80) was 53 % of control, the T/C (endpoint: median tumor weight (est.), dose: 400.0 mg/kg/injection, schedule: Q07DX005 (ip), vehicle: saline) was 41 % of control and the T/C (endpoint: median tumor weight (est.), dose: 800.0 mg/kg/injection, schedule: Q07DX005 (ip), vehicle: saline with Tween-80) was 66 % of control. The T/C (endpoint: median tumor weight (est.), dose: 800.0 mg/kg/injection, schedule: Q07DX005 (ip), vehicle: saline) was 64 % of control, the T/C (endpoint: median tumor weight (est.), dose: 1600.0 mg/kg/injection, schedule: Q07DX005 (ip), vehicle: saline with Tween-80) was 68 % of control and the T/C (endpoint: median tumor weight (est.), dose: 3200.0 mg/kg/injection, schedule: Q07DX005 (ip), vehicle: saline with Tween-80) was 54 % of control. The T/C (endpoint: median tumor weight (est.), dose: 3200.0 mg/kg/injection, schedule: Q07DX005 (ip), vehicle: saline) was 76 % of control.
